# According to US4950647A, “T cell immunopotentiator” (Nucleic Acid Research Institute, priority 1988, dated 1990):
# Entries after “also recorded” stand apart in the source; their conditions may differ.
# Legend:
# [1] = test system: human lymphocytes (peripheral blood mononuclear cells); test: Mitogenic activity (3H-thymidine incorporation); format: cell-based
# Description: (§1) Peripheral blood mononuclear cells were isolated from heparinized peripheral blood of normal healthy donors as described in Sharma, B. and S. Gupta, "Antigen-specific primary cytotoxic T lymphocyte response in acquired immune deficiency syndrome (AIDS) and AIDS related complex", Clin. Exp. Immunol., 62:296, 1985. Briefly, blood was diluted 1:1 with Hanks balanced salt solution (HBSS). Peripheral blood mononuclear cells were separated on a Ficoll-Hypaque gradient. The peripheral blood mononuclear cells recovered from the interface were washed three times with HBSS and resuspended in RPMI-1640 containing 100 U/ml penicillin, 100 μg/ml streptomycin 2mM L-glutamine (GIBCO, Grand Island, N.Y.), and 10% heat-inactivated pooled A serum (Irvine Scientific, Irvine, Calif.), hereafter referred as complete medium (CM).
# The ability of 6-amino-(2-deoxy-α-D-erythro-pentofuranosyl)-imidazo[4,5,-C]pyridin- 4-one to activate lymphocytes was determined by culturing the cells with and without this compound. Peripheral blood mononuclear cells (1×10^5 /0.2 ml) were cultures in 96 well microtiter plates (Corning, N.Y.) for 72-96 hrs at 37° C. in 5% CO2 humid atmosphere and then for an additional 16 hr in the presence of 1 μCi/well [^3 H] thymidine (ICN Pharmaceuticals, Inc., Irvine, Calif.). Cells were harvested on glass fiber filter paper using a cell harvester (Skatron, Lier, Norway). The radioactivity was measured in a scintillation counter after suspending the dried filter in scintillation fluid.
# To determine whether 6-amino-(2-deoxy-α-D-erythro-pentofuranosyl)-imidazo[4,5,-C]pyridin- 4-one directly activates lymphocytes to proliferate, peripheral blood mononuclear cells were cultured with or without this compound as described in the above methods section.
# [2] = test system: B cells (human peripheral blood mononuclear cells); test: Staphylococcus aureus cowan (SAC) induced B cell proliferation; format: cell-based; design: 3H-thymidine incorporation: unit not given here
# Description: as §1
# Peripheral blood mononuclear cells (1×10^5 /0.2 ml/well) were incubated with different concentrations of Staphylococcus aureus cowan (1:[…] and 1:10,000 dilutions) in the presence and absence of 6-amino-(2-deoxy-α-D-erythro-pentofuranosyl)-imidazo[4,5,-C]pyridin- 4-one for 4 days. The cultures were pulsed with [^3 H]-thymidine and then the incorporation of [^3 H]thymidine was measured.
# To further evaluate the effect on B cell response, human peripheral blood mononuclear cells were cultured with Staphylococcus aureus cowan in the presence and absence of 6-amino-(2-deoxy-α-D-erythro-pentofuranosyl)-imidazo[4,5,-C]pyridin- 4-one.
# [3] = test system: human mixed lymphocyte culture; test: Mixed lymphocyte response / culture (alloantigens); format: cell-based
# Description: as §1
# Peripheral blood mononuclear cells (1×10^5 /0.2 ml/well) from donor-A were cultured together with different numbers of peripheral blood mononuclear cells ([…]) of peripheral blood mononuclear cells from the other donor for 96 hr as previously described above for the lymphocyte response to plant mitogens. Cultures were pulsed with [^3 H]-thymidinefor additional 16 hrs.
# [4] = test system: T lymphocytes (peripheral blood mononuclear cells); test: Cyclosporin A induced suppression of lymphocyte response to Concanavalin A, and its restoration; format: cell-based, human; conditions: FIG. 4; Con A
# Description: Briefly, blood was diluted 1:1 with Hanks balanced salt solution (HBSS). Peripheral blood mononuclear cells were separated on a Ficoll-Hypaque gradient.
# Cultures were pulsed for 16 hr and [^3 H]-thymidine incorporation was measured.
# Peripheral blood mononuclear cells from normal donors were incubated with T cell mitogens in the presence and absence of this compound and then [^3 H-thymidine incorporation was measured.
# Lymphocytes proliferation was determined by ^3 H-thymidine incorporation.
# [5] = test system: B target cells (PHA induced lymphoblasts of donor B); test: Generation of antigen-specific primary cytotoxic T lymphocytes, 51Cr release, target B; format: cell-based, human; conditions: for % Specific Cytotoxicity: Exp. 1, A + Bx, no compound 7
# Description: (§2) Peripheral blood mononuclear cells from healthy donor A and C were cultured together with irradiated (3000 R) peripheral blood mononuclear cells from donor B and irradiated cells (SX) from B cells of the SB cell line, respectively, for five days. At the end of the incubation period, the cells were washed and resuspended in medium and then their cytotoxic activity was determined against the specific lymphoblast target cell B or S according to the procedure of Sharma and Gupta noted above.
# [6] = test system: S target cells (cultured lymphoblasts from SB cell line); test: Generation of antigen-specific primary cytotoxic T lymphocytes, 51Cr release, target S; format: cell-based, human; conditions: for % Specific Cytotoxicity: Exp. 2, C + Sx, no compound 26
# Description: as §2
# [7] = Revankar et al. 1984; cited from earlier work
structure (smiles),measurement,setting,value
"Nc1cc2c(ncn2[C@@H]2C[C@H](O)[C@@H](CO)O2)c(O)n1 [Test Compound, 6-amino-1-(2-deoxy-α-D-erythro-pentofuranosyl)imidazo[4,5-C]-pyridin-4-one]",increase in the proliferation of peripheral blood mononuclear cells,"[1]; 0.006 mM to 0.4 mM, several donors",no significant increase
same,stimulation of lymphocytes to proliferate,[1]; 1 mM,failed to stimulate lymphocytes to proliferate
same,direct stimulation of lymphocytes to proliferate,[1]; by itself,unable to directly stimulate lymphocytes to proliferate
same,3H-thymidine incorporation,"[1]; donor 1, 0.006 mM",212 ± 96 Counts per minute
same,3H-thymidine incorporation,"[1]; donor 1, 0.025 mM",494 ± 267 Counts per minute
same,3H-thymidine incorporation,"[1]; donor 1, 0.050 mM",306 ± 106 Counts per minute
same,3H-thymidine incorporation,"[1]; donor 1, 0.2 mM",246 ± 99 Counts per minute
same,3H-thymidine incorporation,"[1]; donor 1, 0.4 mM",320 ± 46 Counts per minute
same,3H-thymidine incorporation,"[1]; donor 2, 0.006 mM",262 ± 68 Counts per minute
same,3H-thymidine incorporation,"[1]; donor 2, 0.025 mM",273 ± 122 Counts per minute
same,3H-thymidine incorporation,"[1]; donor 2, 0.050 mM",257 ± 67 Counts per minute
same,3H-thymidine incorporation,"[1]; donor 3, 0.006 mM",266 ± 42 Counts per minute
same,3H-thymidine incorporation,"[1]; donor 3, 0.025 mM",252 ± 112 Counts per minute
same,3H-thymidine incorporation,"[1]; donor 3, 0.050 mM",180 ± 37 Counts per minute
same,3H-thymidine incorporation,"[1]; donor 4, 0.006 mM",246 ± 61 Counts per minute
same,3H-thymidine incorporation,"[1]; donor 4, 0.025 mM",237 ± 55 Counts per minute
same,3H-thymidine incorporation,"[1]; donor 4, 0.050 mM",240 ± 35 Counts per minute
same,3H-thymidine incorporation,"[1]; donor 5, 0.006 mM",238 ± 63 Counts per minute
same,3H-thymidine incorporation,"[1]; donor 5, 0.025 mM",121 ± 55 Counts per minute
same,3H-thymidine incorporation,"[1]; donor 5, 0.050 mM",841 ± 310 Counts per minute
same,3H-thymidine incorporation,"[1]; donor 5, 0.2 mM",277 ± 51 Counts per minute
same,3H-thymidine incorporation,"[1]; donor 5, 0.4 mM",165 ± 64 Counts per minute
same,3H-thymidine incorporation,"[1]; donor 6, 0.006 mM",486 ± 51 Counts per minute
same,3H-thymidine incorporation,"[1]; donor 6, 0.025 mM",508 ± 140 Counts per minute
same,3H-thymidine incorporation,"[1]; donor 6, 0.050 mM",650 ± 130 Counts per minute
same,3H-thymidine incorporation,"[1]; donor 6, 0.2 mM",620 ± 322 Counts per minute
same,3H-thymidine incorporation,"[1]; donor 6, 0.4 mM",395 ± 22 Counts per minute
same,3H-thymidine incorporation,"[1]; donor 7, 0.006 mM",1133 ± 257 Counts per minute
same,3H-thymidine incorporation,"[1]; donor 7, 0.025 mM",1667 ± 254 Counts per minute
same,3H-thymidine incorporation,"[1]; donor 7, 0.050 mM",772 ± 137 Counts per minute
same,3H-thymidine incorporation,"[1]; donor 7, 0.2 mM",657 ± 137 Counts per minute
same,3H-thymidine incorporation,"[1]; donor 7, 0.4 mM",702 ± 189 Counts per minute
same,suppression of SAC induced B cell proliferation,[2],slight suppression of B cell proliferation in some cases
same,3H-thymidine incorporation,"[2]; SAC 1:100, 0.0125 mM",31582 ± 5535
same,3H-thymidine incorporation,"[2]; SAC 1:100, 0.025 mM",30876 ± 1757
same,3H-thymidine incorporation,"[2]; SAC 1:100, 0.05 mM",31036 ± 2225
same,3H-thymidine incorporation,"[2]; SAC 1:100, 0.6 mM",31549 ± 1496
same,3H-thymidine incorporation,"[2]; SAC 1:1000, 0.0125 mM",18079 ± 829
same,3H-thymidine incorporation,"[2]; SAC 1:1000, 0.025 mM",18897 ± 1334
same,3H-thymidine incorporation,"[2]; SAC 1:1000, 0.05 mM",17240 ± 1634
same,3H-thymidine incorporation,"[2]; SAC 1:1000, 0.2 mM",16618 ± 2378
same,augmenting effect on SAC induced B cell proliferation,"[2]; listed as 6-Amino-(2-deoxy-α-D-erythro-pentofuranosyl)-imidazo[4,5,-C]pyridin-4-one",neither an effect on Staphylococcus aureus cowan induced B cell proliferation; also recorded: no augmenting effect
same,effect on mixed lymphocyte response,[3]; 2-way mixed lymphocyte culture,markedly increased the mixed lymphocyte response in a dose dependent manner in most of the cases
same,maximal increase of mixed lymphocyte response,[3]; 2-way mixed lymphocyte culture,91%
same,3H-thymidine incorporation in MLC,"[3]; A + B (0.5 × 10^5), 0.0125 mM",14814 ± 929 CPM
same,3H-thymidine incorporation in MLC,"[3]; A + B (0.5 × 10^5), 0.025 mM",18978 ± 1048 CPM
same,3H-thymidine incorporation in MLC,"[3]; A + B (0.5 × 10^5), 0.05 mM",21399 ± 1759 CPM
same,3H-thymidine incorporation in MLC,"[3]; A + B (0.5 × 10^5), 0.2 mM",22448 ± 1609 CPM
same,3H-thymidine incorporation in MLC,"[3]; A + B (0.5 × 10^5), 0.4 mM",21593 ± 3007 CPM
same,3H-thymidine incorporation in MLC,"[3]; A + B (1 × 10^5), 0.0125 mM",26858 ± 2392 CPM
same,3H-thymidine incorporation in MLC,"[3]; A + B (1 × 10^5), 0.025 mM",21794 ± 7136 CPM
same,3H-thymidine incorporation in MLC,"[3]; A + B (1 × 10^5), 0.05 mM",33532 ± 1732 CPM
same,3H-thymidine incorporation in MLC,"[3]; A + B (1 × 10^5), 0.2 mM",30790 ± 1912 CPM
same,3H-thymidine incorporation in MLC,"[3]; A + B (1 × 10^5), 0.4 mM",30261 ± 1835 CPM
same,3H-thymidine incorporation in MLC,"[3]; A + B (2 × 10^5), 0.0125 mM",18608 ± 2511 CPM
same,3H-thymidine incorporation in MLC,"[3]; A + B (2 × 10^5), 0.025 mM",23548 ± 4439 CPM
same,3H-thymidine incorporation in MLC,"[3]; A + B (2 × 10^5), 0.05 mM",25299 ± 4479 CPM
same,3H-thymidine incorporation in MLC,"[3]; A + B (2 × 10^5), 0.2 mM",29209 ± 2804 CPM
same,3H-thymidine incorporation in MLC,"[3]; A + B (2 × 10^5), 0.4 mM",27940 ± 3679 CPM
same,3H-thymidine incorporation in MLC,"[3]; B + A (0.5 × 10^5), 0.0125 mM",17045 ± 982 CPM
same,3H-thymidine incorporation in MLC,"[3]; B + A (0.5 × 10^5), 0.025 mM",19538 ± 3053 CPM
same,3H-thymidine incorporation in MLC,"[3]; B + A (0.5 × 10^5), 0.05 mM",20799 ± 1068 CPM
same,3H-thymidine incorporation in MLC,"[3]; B + A (0.5 × 10^5), 0.2 mM",19346 ± 20799 CPM
same,3H-thymidine incorporation in MLC,"[3]; B + A (0.5 × 10^5), 0.4 mM",13779 ± 3043 CPM
same,3H-thymidine incorporation in MLC,"[3]; B + A (2 × 10^5), 0.0125 mM",18538 ± 1601 CPM
same,3H-thymidine incorporation in MLC,"[3]; B + A (2 × 10^5), 0.025 mM",22129 ± 3893 CPM
same,3H-thymidine incorporation in MLC,"[3]; B + A (2 × 10^5), 0.05 mM",24362 ± 2936 CPM
same,3H-thymidine incorporation in MLC,"[3]; B + A (2 × 10^5), 0.2 mM",27737 ± 2105 CPM
same,3H-thymidine incorporation in MLC,"[3]; B + A (2 × 10^5), 0.4 mM",28986 ± 1448 CPM
same,reversal of Cyclosporin A mediated suppression,[4],completely reversed
same,% Specific Cytotoxicity,[5]; compound (0.05),9%
same,% Specific Cytotoxicity,[5]; compound (0.1),22%
same,% Specific Cytotoxicity,[5]; compound (0.2),26%
same,cytotoxic T lymphocyte activity,[5]; specific fresh phytohemagglutinin induced lymphoblasts,increased
same,% Specific Cytotoxicity,[6]; compound (0.006),42%
same,% Specific Cytotoxicity,[6]; compound (0.025),36%
same,% Specific Cytotoxicity,[6]; compound (0.1),53%
same,cytotoxic T lymphocyte activity,[6]; cultured lymphoblasts from the SB cell (leukemic) line,increased
same,in vitro antiviral activity,[7],limited in vitro antiviral activity
